Laboratory results from US11801309B2, “Carbohydrate-functionalized nanoparticles and uses thereof” (VIRGINIA COMMONWEALTH UNIVERSITY INTELLECTUAL PROPERTY …, priority 2016, dated 2023).

Key:
[1] = system: LXR target genes (FAS and SREBP1) in hepatocytes; assay: Expression of LXR target genes in hepatocytes (QPCR); assay type: cell-based, mouse; conditions: 0.2 μM, 24 h
Method: FIG. 6A-6D. mDNP-LXR-L delivered LXR ligand appropriately increases gene expression leading to increased FC efflux. FIGS. 6A and 6B: MPMs (FIG. 6A) or Primary hepatocytes (FIG. 6B) were plated in 6-well culture dishes and incubated with either LXR ligand T0901317 or mDNP or mDNP-LXR-L (0.2 μM) for 24 h; untreated cells were used as Controls. Expression of LXR target genes (ABCA1 and ABCG1 in MPMs and FAS and SREBP1 in hepatocytes) was evaluated by QPCR using total RNA as described under “Methods”. Data (Mean±SD, n=3) are expressed as fold increase over Controls. FIG. 6C: MPMs were plated in 6-well plates were exposed to either LXR ligand T0901317 or mDNP or mDNP-LXR-L (0.2 μM) for 24 h. Cells were washed once with cold PBS and harvested in cold buffer on ice as described under “Methods”. Following disruption of cells by sonication and removal of cell debris, CEH activity was measured using a radiometric assay. CEH activity (Mean±SD, n=3) is expressed as % untreated Controls. FIG. 6D: MPMs, plated in 24-well plate, were loaded and labeled with [^3H]-cholesterol as described under “Methods”. During the 24 h equilibration, cells were exposed to either LXR ligand T0901317 or mDNP or mDNP-LXR-L (0.2 μM). FC efflux to medium containing 10% FBS was monitored for 8 and 24 h. Data (Mean±SD, n=6) are expressed as % efflux. *P<0.05 and NS—not significant. […]

[2] = system: atherosclerotic plaque volume in patients; conditions: randomized controlled trial; cited from earlier work

## O=S(=O)(c1ccccc1)N(CC(F)(F)F)c1ccc(C(O)(C(F)(F)F)C(F)(F)F)cc1 [free LXR-L, T0901317]
[1]
  expression of FAS and SREBP1: significant increase

B1: Evolocumab (antibody, chains of the INN, looked up, V domains shown)
VH: EVQLVQSGAEVKKPGASVKVSCKASGYTLTSYGISWVRQAPGQGLEWMGWVSFYNGNTNYAQKLQGRGTMTTDPSTSTAYMELRSLRSDDTAVYYCARGYGMDVWGQGTTVTVSS
VL: ESALTQPASVSGSPGQSITISCTGTSSDVGGYNSVSWYQQHPGKAPKLMIYEVSNRPSGVSNRFSGSKSGNTASLTISGLQAEDEADYYCNSYTSTSMVFGGGTKLTVL
[2]
  decrease in atheroma volume: 0.95%
